Measured values taken from PubChem BioAssay AID1963871 (Molecular Pharmacology Branch, DTP, NCI, 2024).

Tested on: KRAS-mutant PDC multicell tumor spheroid viability
Experiment: Anticancer human tumor 521955-158-R2-J5-PDC patient-derived pancreatic carcinoma cell line growth inhibition [KRAS2]
Settings: for IC50: curve of first compound; for viability, T/C: stronger effect = lower value
Summary of the method: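 Combination screen of spheroid viability in tumor-cell co-cultures with endothelial (HUVEC) and mesenchymal stem cell stroma. Each agent was tested in half-log dilutions, topping at clinical Cmax or at 10 microM without a known Cmax.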

[1] = second compound 0.1 µM, first compound 0.01 µM
[2] = second compound 0.1 µM, first compound 0.0316 µM
[3] = second compound 0.1 µM, first compound 0.1 µM
[4] = second compound 0.1 µM, first compound 0.316 µM
[5] = second compound 0.1 µM, first compound 1 µM
[6] = second compound 0.1 µM, first compound 3.16 µM
[7] = second compound 0.316 µM, first compound 0.01 µM
[8] = second compound 0.316 µM, first compound 0.0316 µM
[9] = second compound 0.316 µM, first compound 0.1 µM
[10] = second compound 0.316 µM, first compound 0.316 µM
[11] = second compound 0.316 µM, first compound 1 µM
[12] = second compound 0.316 µM, first compound 3.16 µM
[13] = second compound 1 µM, first compound 0.01 µM
[14] = second compound 1 µM, first compound 0.0316 µM
[15] = second compound 1 µM, first compound 0.1 µM
[16] = second compound 1 µM, first compound 0.316 µM
[17] = second compound 1 µM, first compound 1 µM
[18] = second compound 1 µM, first compound 3.16 µM
[19] = second compound 3.16 µM, first compound 0.01 µM
[20] = second compound 3.16 µM, first compound 0.0316 µM
[21] = second compound 3.16 µM, first compound 0.1 µM
[22] = second compound 3.16 µM, first compound 0.316 µM
[23] = second compound 3.16 µM, first compound 1 µM
[24] = second compound 3.16 µM, first compound 3.16 µM
[25] = second compound 10 µM, first compound 0.01 µM
[26] = second compound 10 µM, first compound 0.0316 µM
[27] = second compound 10 µM, first compound 0.1 µM
[28] = second compound 10 µM, first compound 0.316 µM
[29] = second compound 10 µM, first compound 1 µM
[30] = second compound 10 µM, first compound 3.16 µM
[31] = second compound 0.1 µM, first compound 10 µM
[32] = second compound 0.316 µM, first compound 10 µM
[33] = second compound 1 µM, first compound 10 µM
[34] = second compound 3.16 µM, first compound 10 µM
[35] = second compound 10 µM, first compound 10 µM
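Also: viability read after seven days of drug exposure.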

| SMILES | IC50 (second compound 0.1 µM) [µM] | IC50 (second compound 0.316 µM) [µM] | IC50 (second compound 1 µM) [µM] | IC50 (second compound 3.16 µM) [µM] | IC50 (second compound 10 µM) [µM] | viability, T/C [2] [%] | viability, T/C [3] [%] | viability, T/C [4] [%] | viability, T/C [5] [%] | viability, T/C [6] [%] | viability, T/C [8] [%] | viability, T/C [9] [%] | viability, T/C [10] [%] | viability, T/C [11] [%] | viability, T/C [14] [%] | viability, T/C [15] [%] | viability, T/C [20] [%] | viability, T/C [21] [%] | viability, T/C [26] [%] | viability, T/C [27] [%] | further results |
| --- | --- | --- | --- | --- | --- | --- | --- | --- | --- | --- | --- | --- | --- | --- | --- | --- | --- | --- | --- | --- | --- |
| CC(=O)OC12COC1CC(O)C1(C)C(=O)C(O)C3=C(C)C(OC(=O)C(O)C(NC(=O)OC(C)(C)C)c4ccccc4)CC(O)(C(OC(=O)c4ccccc4)C21)C3(C)C (stereo not given) + COc1cc2nc(C)nc(NC(C)c3cc(N)cc(C(F)(F)F)c3)c2cc1OC1CCOC1 | < 0.01 | < 0.01 | < 0.01 | < 0.01 | < 0.01 | 13.7 | 14.5 | 12.4 | 18.4 | 19 | 14.1 | 13.6 | 13.2 | 15.3 | 12.9 | 14 | 14.3 | 12.1 | 13.4 | 14.3 | viability, T/C [1]: 25%; viability, T/C [7]: 17.5%; viability, T/C [12]: 20.2%; viability, T/C [13]: 18.6%; viability, T/C [16]: 14.1%; viability, T/C [17]: 19.4%; viability, T/C [18]: 26.4%; viability, T/C [19]: 14%; viability, T/C [22]: 12.5%; viability, T/C [23]: 17.1%; viability, T/C [24]: 19.6%; viability, T/C [25]: 18.1%; viability, T/C [28]: 14.1%; viability, T/C [29]: 14.3%; viability, T/C [30]: 18.9% |
| CN(C)C/C=C/C(=O)Nc1cc2c(Nc3ccc(F)c(Cl)c3)ncnc2cc1O[C@H]1CCOC1 + COc1cc2nc(C)nc(NC(C)c3cc(N)cc(C(F)(F)F)c3)c2cc1OC1CCOC1 | > 0.1 | > 0.1 | > 0.1 | > 0.1 | > 0.1 | 86.8 | 85 |  |  |  | 80.4 | 61.1 |  |  | 84.3 | 77.2 | 77.8 | 71.8 | 91.8 | 72.7 | viability, T/C (second compound 0.1 µM, first compound 0.000316 µM): 91.4%; viability, T/C (second compound 0.1 µM, first compound 0.001 µM): 93.2%; viability, T/C (second compound 0.1 µM, first compound 0.00316 µM): 74.3%; viability, T/C [1]: 79.6%; viability, T/C (second compound 0.316 µM, first compound 0.000316 µM): 78.4%; viability, T/C (second compound 0.316 µM, first compound 0.001 µM): 84.8%; viability, T/C (second compound 0.316 µM, first compound 0.00316 µM): 63.5%; viability, T/C [7]: 74.5%; viability, T/C (second compound 1 µM, first compound 0.000316 µM): 79.8%; viability, T/C (second compound 1 µM, first compound 0.001 µM): 99.6%; viability, T/C (second compound 1 µM, first compound 0.00316 µM): 82.6%; viability, T/C [13]: 69.8%; viability, T/C (second compound 3.16 µM, first compound 0.000316 µM): 91.5%; viability, T/C (second compound 3.16 µM, first compound 0.001 µM): 93.9%; viability, T/C (second compound 3.16 µM, first compound 0.00316 µM): 88.5%; viability, T/C [19]: 71.2%; viability, T/C (second compound 10 µM, first compound 0.000316 µM): 90.2%; viability, T/C (second compound 10 µM, first compound 0.001 µM): 82.8%; viability, T/C (second compound 10 µM, first compound 0.00316 µM): 86%; viability, T/C [25]: 85.4% |
| COC(=O)c1ccc2c(C(=Nc3ccc(N(C)C(=O)CN4CCN(C)CC4)cc3)c3ccccc3)c(O)[nH]c2c1 + COc1cc2nc(C)nc(NC(C)c3cc(N)cc(C(F)(F)F)c3)c2cc1OC1CCOC1 | 2.01 | 2.71 | 1.84 | 1.78 | < 0.0316 | 113 | 118 | 118 | 138 | 3.03 | 96.5 | 105 | 100 | 102 | 96.8 | 90.3 | 111 | 94.7 | 17.9 | 15.5 | viability, T/C [31]: 0.16%; viability, T/C [12]: 42.1%; viability, T/C [32]: 0.17%; viability, T/C [16]: 108%; viability, T/C [17]: 102%; viability, T/C [18]: 6.39%; viability, T/C [33]: 0.16%; viability, T/C [22]: 112%; viability, T/C [23]: 99.6%; viability, T/C [24]: 0.72%; viability, T/C [34]: 0.58%; viability, T/C [28]: 2.96%; viability, T/C [29]: 0.51%; viability, T/C [30]: 0.17%; viability, T/C [35]: 0.22% |
| O=C(c1cc(Cc2n[nH]c(=O)c3ccccc23)ccc1F)N1CCN(C(=O)C2CC2)CC1 + COc1cc2nc(C)nc(NC(C)c3cc(N)cc(C(F)(F)F)c3)c2cc1OC1CCOC1 | > 10 | > 10 | > 10 | > 10 | > 10 | 92.5 | 71.2 | 83.6 | 88.9 | 75.5 | 81.2 | 66.3 | 70.2 | 73 | 107 | 102 | 108 | 96.6 | 107 | 119 | viability, T/C [31]: 74.5%; viability, T/C [12]: 79.6%; viability, T/C [32]: 58.2%; viability, T/C [16]: 94.6%; viability, T/C [17]: 96.3%; viability, T/C [18]: 92.3%; viability, T/C [33]: 64.6%; viability, T/C [22]: 97.5%; viability, T/C [23]: 83.9%; viability, T/C [24]: 81.1%; viability, T/C [34]: 51.5%; viability, T/C [28]: 112%; viability, T/C [29]: 96.8%; viability, T/C [30]: 86.8%; viability, T/C [35]: 65.2% |
